{"source": "patent US20250311759A1", "about": "“ORGANIC COMPOUNDS” (GIVAUDAN SA, priority 2022, published 2025)", "type_in_all_cases": "in vivo", "key": {"sensory panel [1]": {"test_system": "sensory panel", "test": "Salt enhancement in aqueous NaCl solution, sensory panel", "settings": "for taste description versus 0.5% NaCl solution: 50 ppm in 0.5% NaCl", "description": "Two aqueous solutions have been prepared: • A) 0.3% NaCl, and • B) 0.3% NaCl and 100 ppm of 1H-imidazole.\nThe solutions were tasted by a sensory panel. Solution A was described as “salty”.\nTwo aqueous solutions have been prepared: • A) 0.5% NaCl, and • B) 0.5% NaCl and 50 of ppm of 4-methyl-1H-imidazole.\nThe solutions were tasted by a sensory panel. Solution A was described as “salty”. Solution B was described as more salty in comparison to solution A.\nTwo aqueous solutions have been prepared: • A) 0.5% NaCl, and • B) 0.5% NaCl and 50 ppm of (2E)-3-(1H-imidazol-4-yl)prop-2-enoic acid (urocanic acid).\nThe following aqueous solutions have been prepared: • A) 0.3% NaCl, • B) 0.3% NaCl and 90 ppm of 2-(1H-imidazol-4-yl)acetic acid, and • C) 0.3% NaCl and 80 ppm of benzimidazole. • The solutions were tasted by a sensory panel. Solution A was described as “salty”."}, "sensory panel [2]": {"test_system": "sensory panel", "test": "Umami enhancement in savoury model solution (NaCl, MSG, Ribotides), sensory panel", "settings": "100 ppm in 0.5% NaCl, 0.03% MSG, 0.007% Ribotides", "description": "Two aqueous solutions have been prepared: • A) 0.5% NaCl, 0.03% MSG, 0.007% Ribotides, and • B) 0.5% NaCl, 0.03% MSG, 0.007% Ribotides and 100 ppm of 1H-imidazole.\nThe solutions were tasted by a sensory panel. Solution A is a model solution for savoury taste, containing MSG (monosodium glutamate) and Ribotides (IMP/GMP, 50/50 mixture) as savoury taste enhancer."}, "sensory panel [3]": {"test_system": "sensory panel", "test": "Bitter masking in aqueous KCl solution, sensory panel", "description": "Two aqueous solutions have been prepared: • A) 0.3% KCl, and • B) 0.3% KCl and 70 ppm of 1H-imidazole.\n(§1) The solutions were tasted by a sensory panel.\nThe following aqueous solutions have been prepared: • A) 0.3% KCl, and • B) 0.3% KCl and 100 ppm of 2-(1H-imidazol-4-yl)acetic acid, and • C) 0.3% KCl and 100 ppm of benzimidazole."}, "sensory panel [4]": {"test_system": "sensory panel", "test": "Effect on model broth base, sensory panel", "description": "A model broth base, comprising 0.3% of NaCl was compared with a sample further comprising 100 ppm of 1H-imidazole.\nas §1\nA model broth base, comprising 0.3% of NaCl was compared with a sample further comprising 70 ppm of 2-(1H-imidazol-4-yl)acetic acid, and 100 ppm of benzimidazole, respectively.\nThe solutions were tasted by a sensory panel. […] The solution comprising benzimidazole was preferred."}, "sensory panel [5]": {"test_system": "sensory panel", "test": "Effect on commercially available cheese sauce, sensory panel", "description": "The effect of 1H-imidazole on a commercially available cheese sauce was explored.\nTherefore, a cheese sauce has been compared by a sensory panel with a sample of the sauce further comprising 70 ppm of 1H-imidazole.\nThe effect of 2-(1H-imidazol-4-yl)acetic acid on a commercially available cheese sauce was explored. Therefore, a cheese sauce has been compared by a sensory panel with a sample of the sauce further comprising 50 ppm of 2-(1H-imidazol-4-yl)acetic acid."}, "sensory panel [6]": {"test_system": "sensory panel", "test": "Effect on potato chips, sensory panel", "settings": "70 ppm, potato chips with 1.5% salt", "description": "Potato chips with 1.5% salt have been tasted by a sensory panel with and without 1H-imidazole."}, "sensory panel [7]": {"test_system": "sensory panel", "test": "Effect on commercially available mayonnaise, sensory panel", "settings": "70 ppm in mayonnaise", "description": "Samples of commercially available mayonnaise with and without addition of 1H-imidazole have been compared by a sensory panel.\nSamples of commercially available mayonnaise with addition of 2-(1H-imidazol-4-yl)acetic acid or benzimidazole and without have been compared by a sensory panel."}, "sensory panel [8]": {"test_system": "sensory panel", "test": "Effect on corn curls with cheese flavor, sensory panel", "description": "Corn curls with cheese flavor with and without addition of 1H-imidazole have been compared by a sensory panel.\nCorn curls with cheese flavor with addition of 2-(1H-imidazol-4-yl)acetic acid or benzimidazole and without have been compared by a sensory panel."}, "sensory panel [9]": {"test_system": "sensory panel", "test": "Effect on soy based vegan burger, sensory panel", "settings": "70 ppm in soy based vegan burger; initial peak and last phase of salt perception", "description": "Soy based vegan burgers with and without 1H-imidazole have been tasted by a sensory panel."}, "sensory panel [10]": {"test_system": "sensory panel", "test": "Effect on commercially available ketchup, sensory panel", "description": "Samples of commercially available ketchup with and without addition of 2-(1H-imidazol-4-yl)acetic acid or benzimidazole have been compared by a sensory panel."}, "[11]": {"settings": "100 ppm in model broth base comprising 0.3% NaCl"}, "[12]": {"settings": "150 ppm on corn curls with cheese flavor"}}}
{"smiles": "c1c[nH]cn1", "note": "[1H-imidazole]", "values": [{"measurement": "taste description versus 0.3% NaCl solution", "setting": "sensory panel [1]; 100 ppm in 0.3% NaCl", "value": "clearly more salty with a mineralic note, low acidity, some astringency and freshness"}, {"measurement": "taste description versus savoury model solution", "setting": "sensory panel [2]", "value": "strong boost of saltiness and umami"}, {"measurement": "taste description versus 0.3% KCl solution", "setting": "sensory panel [3]; 70 ppm in 0.3% KCl", "value": "less metallic and more salty"}, {"measurement": "taste description versus model broth base", "setting": "sensory panel [4]; [11]", "value": "more mineral and salty as well as more umami"}, {"measurement": "taste description versus cheese sauce", "setting": "sensory panel [5]; 70 ppm in cheese sauce", "value": "more mineral and salty"}, {"measurement": "taste description versus potato chips without compound", "setting": "sensory panel [6]", "value": "higher salty impact and a lingering effect"}, {"measurement": "taste description versus pure mayonnaise", "setting": "sensory panel [7]", "value": "clearly more salty and had a stronger acetic acid character"}, {"measurement": "taste description versus corn curls without compound", "setting": "sensory panel [8]; 100 ppm on corn curls with cheese flavor", "value": "saltier, and the rich profile was enhanced"}, {"measurement": "taste description versus burger without compound", "setting": "sensory panel [9]", "value": "more salty"}]}
{"smiles": "O=C(O)Cc1c[nH]cn1", "note": "[2-(1H-imidazol-4-yl)acetic acid]", "values": [{"measurement": "taste description versus 0.3% NaCl solution", "setting": "sensory panel [1]; 90 ppm in 0.3% NaCl", "value": "clearly more salty with a minearlic note"}, {"measurement": "panel preference / KCl masker rating", "setting": "sensory panel [3]; 100 ppm in 0.3% KCl", "value": "preferred over solution C"}, {"measurement": "taste description versus 0.3% KCl solution", "setting": "sensory panel [3]; 100 ppm in 0.3% KCl", "value": "less bitter, less metallic and more salty"}, {"measurement": "taste description versus model broth base", "setting": "sensory panel [4]; 70 ppm in model broth base comprising 0.3% NaCl", "value": "more mineral and salty"}, {"measurement": "taste description versus cheese sauce", "setting": "sensory panel [5]; 50 ppm in cheese sauce", "value": "preferred, having more saltiness and umami character"}, {"measurement": "taste description versus pure mayonnaise", "setting": "sensory panel [7]", "value": "clearly more salty with a less sour impression"}, {"measurement": "taste description versus corn curls without compound", "setting": "sensory panel [8]; [12]", "value": "saltier, and the rich profile was enhanced"}, {"measurement": "taste description versus pure ketchup", "setting": "sensory panel [10]; 100 ppm in ketchup", "value": "clearly more salty, sour lingering and less sweet"}]}
{"smiles": "Cc1c[nH]cn1", "note": "[4-methyl-1H-imidazole]", "values": [{"measurement": "taste description versus 0.5% NaCl solution", "setting": "sensory panel [1]", "value": "more salty"}]}
{"smiles": "c1ccc2[nH]cnc2c1", "note": "[benzimidazole]", "values": [{"measurement": "taste description versus 0.3% NaCl solution", "setting": "sensory panel [1]; 80 ppm in 0.3% NaCl", "value": "clearly more salty with a sour fresh background"}, {"measurement": "taste description versus 0.3% KCl solution", "setting": "sensory panel [3]; 100 ppm in 0.3% KCl", "value": "less bitter, less metallic and more salty"}, {"measurement": "panel preference in broth", "setting": "sensory panel [4]; 100 ppm benzimidazole versus 70 ppm 2-(1H-imidazol-4-yl)acetic acid in model broth base", "value": "preferred"}, {"measurement": "taste description versus model broth base", "setting": "sensory panel [4]; [11]", "value": "more mineral and salty"}, {"measurement": "taste description versus pure mayonnaise", "setting": "sensory panel [7]", "value": "clearly more salty with a less sour impression"}, {"measurement": "taste description versus corn curls without compound", "setting": "sensory panel [8]; [12]", "value": "saltier, and the rich profile was enhanced"}, {"measurement": "taste description versus pure ketchup", "setting": "sensory panel [10]; 70 ppm in ketchup", "value": "clearly more salty"}]}
{"smiles": "O=C(O)/C=C/c1c[nH]cn1", "note": "[urocanic acid, (2E)-3-(1H-imidazol-4-yl)prop-2-enoic acid]", "values": [{"measurement": "taste description versus 0.5% NaCl solution", "setting": "sensory panel [1]", "value": "more salty"}]}
